Data taken from PMC5054527, “Mechanism of high affinity inhibition of the human urate transporter URAT1” (Scientific Reports, 2016).
Where a chain is given by its changes, count along the chain named. Like-named read-outs stand apart in the source and are kept apart here.

Assays:
r-h TM1-N URAT1 chimera = target: T1, r-h TM1-N URAT1 chimera (Rattus norvegicus, UniProt Q3ZAV1, A21T/L18V/T26V/V22M/V25M); assay: URAT1 uric acid transport activity assay; type: cell-based, human/rat
T1 sequence (Q3ZAV1 1-553 L18V/A21T/V22M/V25M/T26V): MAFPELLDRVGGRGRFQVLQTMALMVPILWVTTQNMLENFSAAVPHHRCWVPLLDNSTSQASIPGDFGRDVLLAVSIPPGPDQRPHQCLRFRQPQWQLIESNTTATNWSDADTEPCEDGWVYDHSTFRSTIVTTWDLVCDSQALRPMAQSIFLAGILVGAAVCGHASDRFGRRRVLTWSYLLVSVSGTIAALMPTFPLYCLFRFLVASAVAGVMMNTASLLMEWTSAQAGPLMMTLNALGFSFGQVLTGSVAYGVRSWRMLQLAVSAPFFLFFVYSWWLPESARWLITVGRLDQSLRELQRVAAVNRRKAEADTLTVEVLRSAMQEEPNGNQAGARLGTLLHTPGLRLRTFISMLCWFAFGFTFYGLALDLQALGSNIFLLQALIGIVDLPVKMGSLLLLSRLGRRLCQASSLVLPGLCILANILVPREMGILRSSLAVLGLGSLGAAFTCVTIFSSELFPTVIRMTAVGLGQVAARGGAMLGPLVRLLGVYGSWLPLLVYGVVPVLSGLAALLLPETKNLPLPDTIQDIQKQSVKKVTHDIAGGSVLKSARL
Description: (§1) hURAT1 (GenBank BC053348.1) and rURAT1 (NCBI NM_001034943.1) genes were purchased from Origene Technologies, Inc. and subcloned into pCMV6/neo using NotI, creating pCMV6/neo-hURAT1 and pCMV6/neo-rURAT1. Mutants were produced by polymerase chain reaction (PCR) or site-directed mutagenesis using the QuikChange Lightning Multi Site-Directed Mutagenesis Kit (Agilent Technologies). […] Detailed methods are provided in Supplementary Methods, and primers are listed in Supplementary Table 1. […] Residues in rURAT1 and hOAT1 that correspond to the residues in hURAT1 were identified from aligned protein sequences (Supplementary Fig. 1)[50].
(§2) DNA (10 μg) was mixed with 30 μl of DreamFect Gold (Boca Scientific) in 2 ml OptiMem (Life Technologies). After 20 minutes, 18 ml of media containing 2 × 10^7 cells in suspension was added and mixed, and 200 μl per well were plated onto white clear-bottomed poly-D-lysine coated 96-well plates (BD Biosciences). The cells were assayed the following day.
(§3) Compounds were serially diluted into assay buffer and added to the cells for 5 minutes prior to addition of radiolabelled uric acid substrate. URAT1-expressing cells were incubated with 100 μM ^14C-uric acid for 10 minutes. […] Each treatment was measured in triplicate.
(§4) Unlabelled uric acid was prepared at a 20 mM stock just prior to use in a solution containing 20 mM dibasic potassium phosphate and 20 mM potassium hydroxide.
(§5) Nonlinear regression analyses using GraphPad Prism software were used to calculate the potency of URAT1 inhibitors (IC50 values) from log (inhibitor) versus response - variable slope (four parameters) equations. Statistical significance was assessed using Student’s unpaired t-tests.

r-h TM11 URAT1 chimera = target: T2, r-h TM11 URAT1 chimera (Rattus norvegicus, UniProt Q3ZAV1, M481I/V474M); assay: URAT1 uric acid transport activity assay; type: cell-based, human/rat
T2 sequence (Q3ZAV1 1-553 V474M/M481I): T1 sequence (Q3ZAV1 1-553 L18V/A21T/V22M/V25M/T26V) with V18L, T21A, M22V, M25V, V26T, V474M, M481I
Description: as §1, §2, §3, §4, §5

human URAT1 = target: T3, human URAT1 (Homo sapiens, UniProt Q96S37); assay: ^3H-RDEA3170 URAT1 membrane binding assay; settings: human URAT1 membranes; 10 nM ^3H-RDEA3170
T3 construct: hURAT1 and rURAT1 are 553 amino acid proteins with 12 transmembrane segments; expressed in transfected cells; host or cells: URAT1-transfected cells (HEK-293T per the transfection section)
T3 sequence (Q96S37 1-553): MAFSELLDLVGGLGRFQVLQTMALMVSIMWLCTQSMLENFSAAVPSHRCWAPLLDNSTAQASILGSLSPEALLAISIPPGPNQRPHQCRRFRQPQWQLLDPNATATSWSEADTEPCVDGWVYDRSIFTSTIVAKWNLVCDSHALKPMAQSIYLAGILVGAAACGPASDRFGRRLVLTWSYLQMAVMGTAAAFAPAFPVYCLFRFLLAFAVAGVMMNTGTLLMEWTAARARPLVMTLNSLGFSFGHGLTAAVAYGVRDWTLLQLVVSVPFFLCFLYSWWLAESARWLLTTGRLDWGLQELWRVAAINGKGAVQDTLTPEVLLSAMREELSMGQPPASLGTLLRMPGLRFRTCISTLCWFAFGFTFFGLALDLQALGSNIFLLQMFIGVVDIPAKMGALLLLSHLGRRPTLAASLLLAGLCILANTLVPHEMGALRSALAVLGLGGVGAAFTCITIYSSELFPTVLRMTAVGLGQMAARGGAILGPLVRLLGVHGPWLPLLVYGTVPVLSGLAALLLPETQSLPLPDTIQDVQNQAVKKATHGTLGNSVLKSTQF
Procedure: Membranes were prepared from URAT1-transfected cells. […] Cells were lysed with 100 strokes in a dounce homogenizer using a tight-fitting “B” stem. Lysates were transferred to 1.5 ml Eppendorf tubes and centrifuged at 250 rcf for 5 minutes at 2 °C, and supernatants were transferred to fresh tubes and centrifuged again at 18,000 rcf for 20 minutes at 2 °C. The pellets (membrane fractions) were resuspended in 1 ml of ice-cold binding buffer containing protease inhibitors and frozen at −80 °C. Protein was measured using the Bio-Rad protein assay dye reagent concentrate.
To initiate binding, membranes at 2.5 μg total protein were incubated with ^3H-RDEA3170 for 30 minutes at room temperature. […] The plates were then subjected to scintillation counting. All samples were assayed in triplicate.

Structure (SMILES)	IC50 (r-h TM1-N URAT1 chimera; r-h TM1-N, HEPES pH 7.3, 100 μM 14C-uric acid, read-out: IC50 (uric acid transport))	IC50 (r-h TM11 URAT1 chimera; r-h TM11, HEPES pH 7.3, 100 μM 14C-uric acid, read-out: IC50 (uric acid transport))	displacement of ^3H-RDEA3170 binding to hURAT1 (human URAT1)	IC50 (r-h TM1-N URAT1 chimera; r-h TM1-N, MES pH 5.5, 100 μM 14C-uric acid, read-out: IC50 (uric acid transport))	IC50 (r-h TM11 URAT1 chimera; r-h TM11, MES pH 5.5, 100 μM 14C-uric acid, read-out: IC50 (uric acid transport))	IC50 (r-h TM1-N URAT1 chimera)	IC50 (r-h TM11 URAT1 chimera)
O=C1C(CC[S+]([O-])c2ccccc2)C(=O)N(c2ccccc2)N1c1ccccc1 (stereo not drawn) [sulfinpyrazone]	12 ± 2.6 µM	342 ± 32 µM	displace binding of the probe				
O=C(O)CSc1nnc(Br)n1-c1ccc(C2CC2)c2ccccc12 [lesinurad, 2-((5-bromo-4-(4-cyclopropylnaphthalen-1-yl)-4H-1,2,4-triazol-3-yl)thio)acetic acid]			displace binding of the probe	40 ± 7 µM	62 ± 3.6 µM		
CCc1oc2ccccc2c1C(=O)c1cc(Br)c(O)c(Br)c1 [benzbromarone]			displace binding of the probe			16 ± 0.76 µM	12 ± 0.48 µM
